Calls of active or inactive are those of the source. No cut-off for these calls is given here.
Key:
MDA-MB-231 [1] = test: Antiproliferative activity against human MDA-MB-231 cells assessed as cell viability incubated for 48 hrs measured after additional incubation with MTT; format: functional, cell-based; settings: MDA-MB-231, 48 h
MDA-MB-468 [2] = test: Antiproliferative activity against human MDA-MB-468 cells assessed as cell viability incubated for 48 hrs measured after additional incubation with MTT; format: functional, cell-based; settings: MDA-MB-468, 48 h
L02 = test: Antiproliferative activity against human L02 cells assessed as cell viability incubated for 48 hrs measured after additional incubation with MTT; format: functional, cell-based; settings: L02, 48 h
[3] = molecular target: Signal transducer and activator of transcription 3 (Homo sapiens) (UniProt P40763); test: Suppression of STAT3 activation in human MDA-MB-231 cell assessed as decrease in phosphorylated STAT3 (p-STAT3 Tyr705) level at 3 uM measured after 24 hrs by Western blot analysis; format: cell-based
[4] = Antiproliferative activity against human MCF-10A cells assessed as cell viability incubated for 48 hrs measured after additional incubation with MTT; format: toxicity, cell-based
MDA-MB-231 [5] = test: Decrease in STAT3 level in human MDA-MB-231 cell at 3 uM measured after 24 hrs by Western blot analysis; format: functional, cell-based
[6] = molecular target: Signal transducer and activator of transcription 3 (Homo sapiens) (UniProt P40763); test: Suppression of STAT3 activation in human MDA-MB-468 cell assessed as decrease in phosphorylated STAT3 (p-STAT3 Tyr705) level at 3 uM measured after 24 hrs by Western blot analysis; format: cell-based
MDA-MB-468 [7] = test: Decrease in STAT3 level in human MDA-MB-468 cell at 3 uM measured after 24 hrs by Western blot analysis; format: functional, cell-based
[8] = Half life in male rat at 10 mg/kg, po measured upto 24 hrs by LC/MS/MS analysis; format: ADME, organism-based; settings: in vivo
[9] = AUC(0 to t) in male rat at 5 mg/kg, iv measured upto 24 hrs by LC/MS/MS analysis; format: ADME, organism-based; settings: in vivo
[10] = AUC(0 to t) in male rat at 10 mg/kg, ip measured upto 24 hrs by LC/MS/MS analysis; format: ADME, organism-based; settings: in vivo
[11] = Tmax in male rat at 10 mg/kg, po measured upto 24 hrs by LC/MS/MS analysis; format: ADME, organism-based; settings: in vivo
[12] = AUC(0 to infinity) in male rat at 10 mg/kg, po measured upto 24 hrs by LC/MS/MS analysis; format: ADME, organism-based; settings: in vivo
[13] = AUC(0 to infinity) in male rat at 5 mg/kg, iv measured upto 24 hrs by LC/MS/MS analysis; format: ADME, organism-based; settings: in vivo
[14] = Tmax in male rat at 10 mg/kg, ip measured upto 24 hrs by LC/MS/MS analysis; format: ADME, organism-based; settings: in vivo
[15] = Cmax in male rat at 10 mg/kg, ip measured upto 24 hrs by LC/MS/MS analysis; format: ADME, organism-based; settings: in vivo
[16] = AUC(0 to infinity) in male rat at 10 mg/kg, ip measured upto 24 hrs by LC/MS/MS analysis; format: ADME, organism-based; settings: in vivo
[17] = Oral bioavailability in male rat at 10 mg/kg measured upto 24 hrs by LC/MS/MS analysis; format: ADME, organism-based; settings: in vivo
[18] = Cmax in male rat at 10 mg/kg, po measured upto 24 hrs by LC/MS/MS analysis; format: ADME, organism-based; settings: in vivo
[19] = Tmax in male rat at 5 mg/kg, iv measured upto 24 hrs by LC/MS/MS analysis; format: ADME, organism-based; settings: in vivo
[20] = Half life in male rat at 10 mg/kg, ip measured upto 24 hrs by LC/MS/MS analysis; format: ADME, organism-based; settings: in vivo
[21] = AUC(0 to t) in male rat at 10 mg/kg, po measured upto 24 hrs by LC/MS/MS analysis; format: ADME, organism-based; settings: in vivo
[22] = Half life in male rat at 5 mg/kg, iv measured upto 24 hrs by LC/MS/MS analysis; format: ADME, organism-based; settings: in vivo
[23] = Cmax in male rat at 5 mg/kg, iv measured upto 24 hrs by LC/MS/MS analysis; format: ADME, organism-based; settings: in vivo

Sequence of Signal transducer and activator of transcription 3 (Homo sapiens) (P40763 whole entry): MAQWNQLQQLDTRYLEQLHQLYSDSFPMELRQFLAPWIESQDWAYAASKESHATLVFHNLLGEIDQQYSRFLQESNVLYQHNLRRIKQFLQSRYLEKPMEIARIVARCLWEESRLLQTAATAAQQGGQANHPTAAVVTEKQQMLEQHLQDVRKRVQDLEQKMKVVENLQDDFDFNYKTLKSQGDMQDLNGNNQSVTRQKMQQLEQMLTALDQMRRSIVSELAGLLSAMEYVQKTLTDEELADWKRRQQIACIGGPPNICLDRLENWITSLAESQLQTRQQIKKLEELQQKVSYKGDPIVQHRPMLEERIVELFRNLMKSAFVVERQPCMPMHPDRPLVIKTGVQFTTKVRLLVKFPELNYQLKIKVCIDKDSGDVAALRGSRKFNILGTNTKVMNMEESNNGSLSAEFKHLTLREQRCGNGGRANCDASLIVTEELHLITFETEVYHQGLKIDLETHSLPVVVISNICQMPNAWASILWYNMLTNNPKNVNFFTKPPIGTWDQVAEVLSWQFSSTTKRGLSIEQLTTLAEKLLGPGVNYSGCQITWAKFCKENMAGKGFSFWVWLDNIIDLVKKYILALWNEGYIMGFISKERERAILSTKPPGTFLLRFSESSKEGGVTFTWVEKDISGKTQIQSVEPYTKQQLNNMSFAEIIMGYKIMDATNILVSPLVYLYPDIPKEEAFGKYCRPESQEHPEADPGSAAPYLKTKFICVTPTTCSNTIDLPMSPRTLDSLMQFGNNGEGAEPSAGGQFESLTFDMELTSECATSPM

| Compound | IC50 (MDA-MB-231 [1]) | IC50 (MDA-MB-468 [2]) | IC50 (L02) | IC50 at 48 h [4] | also measured |
| --- | --- | --- | --- | --- | --- |
| Cc1ccc(C(=O)N2CCc3c(oc4c3C(=O)C(=O)c3ccccc3-4)C2)cc1 | 14.2 µM | 16.9 µM |  |  |  |
| COC(=O)[C@H](Cc1ccc(O)cc1)N1CCc2c(oc3c2C(=O)C(=O)c2ccccc2-3)C1 | 7.26 µM | 14.3 µM |  |  |  |
| CN(C)c1ccc(C(=O)N2CCc3c(oc4c3C(=O)C(=O)c3ccccc3-4)C2)cc1 | > 20 µM | > 20 µM | > 20 µM | > 20 µM |  |
| O=C1C(=O)c2c(oc3c2CCN(C(=O)c2cccs2)C3)-c2ccccc21 | > 20 µM | 12.9 µM |  |  |  |
| O=C1C(=O)c2c(oc3c2CCN(C(=O)c2ccc(F)cc2)C3)-c2ccccc21 | 10.9 µM | 12 µM |  |  |  |
| COc1ccc(C(=O)N2CCc3c(oc4c3C(=O)C(=O)c3ccccc3-4)C2)cc1 | 17.3 µM | > 20 µM |  |  |  |
| CNC(=O)CCCN1CCc2c(oc3c2C(=O)C(=O)c2ccccc2-3)C1 | 7.45 µM | 9.45 µM |  |  |  |
| O=C1C(=O)c2c(oc3c2CCNC3)-c2ccccc21 | 7.11 µM | 9.23 µM |  |  |  |
| O=C1C(=O)c2c(oc3c2CCN(C(=O)c2ccco2)C3)-c2ccccc21 | 12.4 µM | 12.9 µM |  |  |  |
| COC(=O)[C@H](CC(C)C)N1CCc2c(oc3c2C(=O)C(=O)c2ccccc2-3)C1 | > 20 µM | > 20 µM |  |  |  |
| COC(=O)CC[C@@H](C(=O)OC)N1CCc2c(oc3c2C(=O)C(=O)c2ccccc2-3)C1 | 12.7 µM | 12.2 µM |  |  |  |
| O=C1C(=O)c2c(oc3c2CCN(C(=O)c2ccc(Cl)cc2)C3)-c2ccccc21 | 13 µM | 10.7 µM |  |  |  |
| O=C1C(=O)c2c(oc3c2CCN(CCCCO)C3)-c2ccccc21 | 6.41 µM | 9.48 µM |  |  |  |
| O=C1C(=O)c2c(oc3c2CCN([C@H](CO)Cc2ccccc2)C3)-c2ccccc21 | 9.97 µM | > 10 µM |  |  |  |
| N#Cc1ccc(C(=O)N2CCc3c(oc4c3C(=O)C(=O)c3ccccc3-4)C2)cc1 | 14.8 µM | 12.6 µM |  |  |  |
| CC(C)C[C@@H](CO)N1CCc2c(oc3c2C(=O)C(=O)c2ccccc2-3)C1.Cl |  |  |  |  | half-life [8]: 6.5 h; AUC(0-t) at 24 h [9]: 490 ng·h/mL; AUC(0-t) at 24 h [10]: 571 ng·h/mL; Tmax [11]: 0.4 h; AUC(0-inf) [12]: 106 ng·h/mL; AUC(0-inf) [13]: 493 ng·h/mL; Tmax [14]: 0.1 h; Cmax [15]: 272 ng/mL; AUC(0-inf) [16]: 523 ng·h/mL; bioavailability [17]: 10.9%; Cmax [18]: 78.4 ng/mL; Tmax [19]: 4.8 min; half-life [20]: 17.2 h; AUC(0-t) at 24 h [21]: 107 ng·h/mL; half-life [22]: 17.2 h; Cmax [23]: 972 ng/mL |
| CN1CCN(C(=O)N2CCc3c(oc4c3C(=O)C(=O)c3ccccc3-4)C2)CC1 | 6.08 µM | 5.84 µM |  |  |  |
| CNC(=O)CN1CCc2c(oc3c2C(=O)C(=O)c2ccccc2-3)C1 | 6.51 µM | 4.78 µM |  |  |  |
| O=C1C(=O)c2c(oc3c2CCN(C(=O)N2CCOCC2)C3)-c2ccccc21 | 6.43 µM | 5.41 µM | > 20 µM | 16.8 µM |  |
| CNC(=O)[C@H](Cc1ccc(O)cc1)N1CCc2c(oc3c2C(=O)C(=O)c2ccccc2-3)C1 | 7.26 µM | 10.4 µM |  |  |  |
| COC(=O)[C@H](Cc1ccccc1)N1CCc2c(oc3c2C(=O)C(=O)c2ccccc2-3)C1 | 8.26 µM | 11.4 µM |  |  |  |
| O=C1C(=O)c2c(oc3c2CCN(C(=O)c2ccc(C(F)(F)F)cc2)C3)-c2ccccc21 | 14.7 µM | 14.7 µM |  |  |  |
| COC(=O)CCCN1CCc2c(oc3c2C(=O)C(=O)c2ccccc2-3)C1 | 6.89 µM | 9.12 µM |  |  |  |
| CNC(=O)[C@H](Cc1ccccc1)N1CCc2c(oc3c2C(=O)C(=O)c2ccccc2-3)C1 | 8.12 µM | 8.05 µM |  |  |  |
| C[C@H]1COC2=C1C(=O)C(=O)c1c2ccc2c1CCCC2(C)C [CRYPTOTANSHINONE] | > 20 µM | > 20 µM | > 20 µM | > 20 µM |  |
| O=C1C(=O)c2c(oc3c2CCN([C@H](CO)Cc2ccc(O)cc2)C3)-c2ccccc21 | 13.6 µM | 13 µM |  |  |  |
| CNC(=O)[C@H](CC(C)C)N1CCc2c(oc3c2C(=O)C(=O)c2ccccc2-3)C1 | 7.99 µM | 7.36 µM |  |  |  |
| O=C1C(=O)c2c(oc3c2CCN(C(=O)c2cccc(C(F)(F)F)c2)C3)-c2ccccc21 | 12.5 µM | > 20 µM |  |  |  |

Continued by falling IC50 (MDA-MB-231 [1]), values first:

| IC50 (MDA-MB-231 [1]) | IC50 (MDA-MB-468 [2]) | Compound | IC50 (L02) | IC50 at 48 h [4] | also measured |
| --- | --- | --- | --- | --- | --- |
| 5.86 µM | 5.89 µM | O=C1C(=O)c2c(oc3c2CCN(C(=O)c2cccnc2)C3)-c2ccccc21 | 13.3 µM | 9.35 µM |  |
| 5.72 µM | 4.13 µM | COC(=O)CCN1CCc2c(oc3c2C(=O)C(=O)c2ccccc2-3)C1 | 8.51 µM | 4.55 µM |  |
| 5.71 µM | 6.86 µM | O=C1C(=O)c2c(oc3c2CCN(C(=O)c2ccccc2)C3)-c2ccccc21 | > 20 µM | 19.2 µM |  |
| 4.59 µM | 5.82 µM | COc1ccc(C(=O)N2CCc3c(oc4c3C(=O)C(=O)c3ccccc3-4)C2)cc1OC | 7.43 µM | 7.96 µM |  |
| 4.57 µM | 3.89 µM | CC(=O)N1CCc2c(oc3c2C(=O)C(=O)c2ccccc2-3)C1 | 16.6 µM | 17.8 µM | inhibition [3]: Active; inhibition [6]: Active |
| 4.5 µM | 3.6 µM | CNC(=O)CCN1CCc2c(oc3c2C(=O)C(=O)c2ccccc2-3)C1 | 12.5 µM | 11 µM | inhibition [3]: Active; Activity (MDA-MB-231 [5]): Active; inhibition [6]: Active; Activity (MDA-MB-468 [7]): Active |
| 4.14 µM | 6.41 µM | CNC(=O)[C@H](C)N1CCc2c(oc3c2C(=O)C(=O)c2ccccc2-3)C1 | > 20 µM | 17.6 µM | inhibition [3]: Active; Activity (MDA-MB-231 [5]): Active; inhibition [6]: Active; Activity (MDA-MB-468 [7]): Active |
| 4 µM | 2.35 µM | CN(C)C(=O)N1CCc2c(oc3c2C(=O)C(=O)c2ccccc2-3)C1 | > 20 µM | > 20 µM | inhibition [3]: Active; Activity (MDA-MB-231 [5]): Active; inhibition [6]: Active; Activity (MDA-MB-468 [7]): Active |
| 3.41 µM | 5.42 µM | C[C@@H](CO)N1CCc2c(oc3c2C(=O)C(=O)c2ccccc2-3)C1 | 7.87 µM | 7.98 µM | inhibition [3]: Active; inhibition [6]: Active |
| 3.14 µM | 2.36 µM | COC(=O)[C@H](C)N1CCc2c(oc3c2C(=O)C(=O)c2ccccc2-3)C1 |  | 18.2 µM | inhibition [3]: inactive; inhibition [6]: inactive |
| 2.5 µM | 2.42 µM | COC(=O)CN1CCc2c(oc3c2C(=O)C(=O)c2ccccc2-3)C1 | 5.46 µM | 4.89 µM |  |
| 2.3 µM | 2.32 µM | O=C1C(=O)c2c(oc3c2CCN(CCCO)C3)-c2ccccc21 | 15.5 µM | 11.1 µM | inhibition [3]: Active; Activity (MDA-MB-231 [5]): Active; inhibition [6]: Active; Activity (MDA-MB-468 [7]): Active |
| 1.43 µM | 2.51 µM | CC(=O)c1cc2c(o1)C(=O)C(=O)c1ccccc1-2 | 7.25 µM | 6.23 µM |  |
| 1.19 µM | 1.57 µM | O=C1C(=O)c2c(oc3c2CCN(CCO)C3)-c2ccccc21 | 3.91 µM | 2.89 µM | half-life [8]: 4 h; AUC(0-t) at 24 h [9]: 611 ng·h/mL; AUC(0-t) at 24 h [10]: 219 ng·h/mL; inhibition [3]: Active; Tmax [11]: 1.1 h; AUC(0-inf) [12]: 50.1 ng·h/mL; AUC(0-inf) [13]: 645 ng·h/mL; Tmax [14]: 0.7 h; Cmax [15]: 107 ng/mL; inhibition [6]: Active; AUC(0-inf) [16]: 241 ng·h/mL; bioavailability [17]: 3.8%; Cmax [18]: 34.4 ng/mL; Tmax [19]: 4.8 min; half-life [20]: 3.5 h; AUC(0-t) at 24 h [21]: 47.2 ng·h/mL; half-life [22]: 2.4 h; Cmax [23]: 237 ng/mL |
